Data from US10632171B2, “Melanocortin receptor-specific peptides” (Palatin Technologies, Inc., priority 2009, dated 2020).
Read-outs that look alike come from different tables or passages of the source. Peptide text beside a SMILES is read from it.

Key:
[1] = target: hMC4-R (Homo sapiens (Human), UniProt P32245); assay: Assay for agonist activity (cAMP accumulation in HEK-293 cells); assay type: cell-based; details: for Emax: HEK293; for functional classification at MC4-R: agonist = intrinsic activity 70% or higher, partial agonist 10-70%
hMC4-R, sequence (P32245 whole entry): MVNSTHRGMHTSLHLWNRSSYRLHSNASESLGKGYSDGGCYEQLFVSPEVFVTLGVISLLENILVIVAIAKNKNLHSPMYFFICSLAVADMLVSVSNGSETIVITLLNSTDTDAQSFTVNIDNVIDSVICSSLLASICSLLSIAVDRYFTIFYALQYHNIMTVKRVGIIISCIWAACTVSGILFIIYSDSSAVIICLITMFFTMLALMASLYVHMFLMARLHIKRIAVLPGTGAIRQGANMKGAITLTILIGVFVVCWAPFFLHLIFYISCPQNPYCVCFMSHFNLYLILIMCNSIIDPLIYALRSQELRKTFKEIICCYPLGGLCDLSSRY
Protocol: Accumulation of intracellular cAMP was examined as a measure of the ability of the peptides of the present invention to elicit a functional response in HEK-293 cells that express MC4-R. Confluent HEK-293 cells that express recombinant hMC4-R were detached from culture plates by incubation in enzyme-free cell dissociation buffer. Dispersed cells were suspended in Earle's Balanced Salt Solution containing 10 mM HEPES (pH 7.5), 1 mM MgCl2, 1 mM glutamine, 0.5% albumin and 0.3 mM 3-isobutyl-1-methyl-xanthine (IBMX), a phosphodiesterase inhibitor. […] Cells were exposed for 15 minutes at 37° C. to peptides of the present invention dissolved in DMSO (final DMSO concentration of 1%) at a concentration range of 0.05-5000 nM in a total assay volume of 200 μL. […] Data analysis was performed by nonlinear regression analysis with Graph-Pad Prism® software. The maximum efficacies of the test peptides of the present invention were compared to that achieved by the reference melanocortin agonist NDP-αMSH.

[2] = target: hMC1-R (Homo sapiens (Human), UniProt Q01726); assay: Functional assay for agonist activity at hMC1-R; assay type: cell-based; details: intrinsic activity
hMC1-R, sequence (Q01726 whole entry): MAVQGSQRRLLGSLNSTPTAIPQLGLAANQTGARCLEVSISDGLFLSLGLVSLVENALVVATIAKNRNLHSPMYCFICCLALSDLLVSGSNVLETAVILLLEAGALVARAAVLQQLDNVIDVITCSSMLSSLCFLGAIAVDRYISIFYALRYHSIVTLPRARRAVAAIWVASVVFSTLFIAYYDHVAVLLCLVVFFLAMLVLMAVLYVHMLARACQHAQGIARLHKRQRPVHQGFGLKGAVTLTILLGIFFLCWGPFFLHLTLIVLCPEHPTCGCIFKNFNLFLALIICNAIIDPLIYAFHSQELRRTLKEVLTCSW

[3] = Food intake and body weight change in rats; assay type: in vivo, rat; details: for decrease in food consumption compared to control: rats
Protocol: Change in food intake and body weight was evaluated for selected peptides administered by intravenous (IV) or subcutaneous injection routes. Male Sprague-Dawley rats were obtained from Hilltop Lab Animals, Inc. (Scottsdale, Pa.) or other vendors. Animals were individually housed in conventional polystyrene hanging cages and maintained on a controlled 12 hour on/off light cycle. Water and pelleted food was provided ad libitum. The rats were dosed IV with vehicle or selected peptides (0.3 to 1.0 mg/kg), or dosed subcutaneously with vehicle or selected peptides (doses up to 30 mg/kg). […] The changes in body weight and food intake for the 48 hour and 72 hour periods after dosing can also be measured to determine reversal of changes in body weight and food intake effects back to baseline levels.

[4] = Induction of penile erection in male rats; assay type: in vivo, rat; details: subcutaneous, 1, 3 or 10 mg/kg
Protocol: The ability of peptides of the present invention to induce penile erection (PE) in male rats were evaluated with selected peptides. Male Sprague-Dawley rats weighing 250-300 g were kept on a 12 hour on/off light cycle with food and water ad libitum. All behavioral studies were performed between 9 a.m. and 4 p.m. […] Rats are observed for one hour, and the number of yawns, grooming bouts and PEs are recorded in 10-minute bins.

[5] = NDP-α-MSH is 100%, read-out: intrinsic activity at MC4-R
[6] = intrinsic activity, read-out: hMC4-R Emax (%)
[7] = rat feeding study, 0.3 and 1 mg/kg

Structure (SMILES)	Emax [1, 5]	functional classification at MC4-R [1]	Emax [2]	Emax [1, 6]	further results
CC(=O)N[C@@H](CCCNC(=N)N)C(=O)N[C@H]1CCNC(=O)CCC[C@@H](C(N)=O)NC(=O)[C@H](Cc2c[nH]c3ccccc23)NC(=O)[C@H](CCCNC(=N)N)NC(=O)[C@@H](Cc2ccccc2)NC(=O)[C@H](CCN)NC1=O [compound 129, Ac-Arg-cyclo(Dab-Dab- D-Phe-Arg-Trp-hGlu)- NH2]	96%	agonist	–	–	–
CC(=O)N[C@@H](CCCNC(=N)N)C(=O)N[C@H]1CCCC(=O)NCC[C@@H](C(N)=O)NC(=O)[C@H](Cc2c[nH]c3ccccc23)NC(=O)[C@H](CCCNC(=N)N)NC(=O)[C@@H](Cc2ccccc2)NC(=O)[C@H](Cc2c[nH]cn2)NC1=O [compound 126, Ac-Arg-cyclo(hGlu-His- D-Phe-Arg-Trp-Dab)- NH2]	101%	agonist	–	–	–
CC(=O)N[C@@H](CCCNC(=N)N)C(=O)N[C@H]1CCCNC(=O)CC[C@@H](C(N)=O)NC(=O)[C@H](Cc2c[nH]c3ccccc23)NC(=O)[C@H](CCCNC(=N)N)NC(=O)[C@@H](Cc2ccccc2)NC(=O)[C@H](CCC(N)=O)NC1=O [compound 150, Ac-Arg-cyclo(Orn-Gln- D-Phe-Arg-Trp-Glu)- NH2]	–	–	89%	–	–
CC(=O)N[C@H](CCCNC(=N)N)C(=O)N[C@H]1CC(=O)NCCCC[C@@H](C(N)=O)NC(=O)[C@H](Cc2c[nH]c3ccccc23)NC(=O)[C@H](CCCNC(=N)N)NC(=O)[C@@H](Cc2ccccc2)NC(=O)[C@H](CCC(N)=O)NC1=O [compound 71, Ac-D-Arg-cyclo(Asp- Gln-D-Phe-Arg-Trp- Lys)-NH2]	–	–	88%	89%	–
CC(=O)N[C@H](CCCNC(=N)N)C(=O)N[C@H]1CCCNC(=O)CC[C@@H](C(N)=O)NC(=O)[C@H](Cc2c[nH]c3ccccc23)NC(=O)[C@H](CCCNC(=N)N)NC(=O)[C@@H](Cc2ccccc2)NC(=O)[C@H](CC(N)=O)NC1=O [compound 156, Ac-D-Arg-cyclo(Orn- Asn-D-Phe-Arg-Trp- Glu)-NH2]	–	–	81%	–	–
CC(=O)N[C@@H](CCCNC(=N)N)C(=O)N[C@H]1CCCCNC(=O)C[C@@H](C(N)=O)NC(=O)[C@H](Cc2ccc3ccccc3c2)NC(=O)[C@H](CCCNC(=N)N)NC(=O)[C@@H](Cc2ccccc2)NC(=O)[C@H](CC(N)=O)NC1=O [compound 162, Ac-Arg-cyclo(Lys-Asn- D-Phe-Arg-Nal 2-Asp)- NH2] (HELM PEPTIDE1{[ac].R.K.N.[dF].R.[O=C([C@H](Cc1ccc2ccccc2c1)N[*:1])[*:2]].D.[am]}$PEPTIDE1,PEPTIDE1,3:R3-8:R3$$$V2.0)	–	–	89%	82%	–
CC(=O)N[C@@H](CCCNC(=N)N)C(=O)N[C@H]1CC(=O)NCCCC[C@@H](C(N)=O)NC(=O)[C@H](Cc2c[nH]c3ccccc23)NC(=O)[C@H](CCCNC(=N)N)NC(=O)[C@@H](Cc2ccccc2)NC(=O)[C@H](C(C)C)NC1=O [Peptide No. 16, Ac-Arg-cyclo(Asp-Val- D-Phe-Arg-Trp-Lys)- NH2]	42%	partial agonist	–	–	food intake [3, 7]: reduce food intake; rate of change in body weight [3, 7]: decrease the rate of change in body weight; decrease in food consumption compared to control ([3]; 0.3 mg/kg, 0-2 and 0-4 hour periods): statistically significant; decrease in food consumption compared to control ([3]; 1 mg/kg, 0-2, 0-4 and 0-20 hour periods): statistically significant
CC(=O)N[C@@H](CCCNC(=N)N)C(=O)N[C@H]1CCNC(=O)CCC[C@@H](C(N)=O)NC(=O)[C@H](Cc2c[nH]c3ccccc23)NC(=O)[C@H](CCCNC(=N)N)NC(=O)[C@@H](Cc2ccccc2)NC(=O)[C@H](Cc2c[nH]cn2)NC1=O [compound 128, Ac-Arg-cyclo(Dab-His- D-Phe-Arg-Trp-hGlu)- NH2]	95%	agonist	–	–	–
CC(=O)N[C@@H](CCCNC(=N)N)C(=O)N[C@H]1CCNC(=O)CCC[C@@H](C(N)=O)NC(=O)[C@H](Cc2c[nH]c3ccccc23)NC(=O)[C@H](CCCNC(=N)N)NC(=O)[C@@H](Cc2ccccc2)NC(=O)[C@H](CCC(N)=O)NC1=O [compound 159, Ac-Arg-cyclo(Dab-Gln- D-Phe-Arg-Trp-hGlu)- NH2]	–	–	98%	99%	–
CC(=O)N[C@@H](CCCNC(=N)N)C(=O)N[C@H]1CC(=O)NCCCC[C@@H](C(N)=O)NC(=O)[C@H](Cc2c[nH]c3ccccc23)NC(=O)[C@H](CCCNC(=N)N)NC(=O)[C@@H](Cc2ccccc2)NC(=O)[C@H](CCC(N)=O)NC1=O [Peptide No. 32, Ac-Arg-cyclo(Asp-Gln- D-Phe-Arg-Trp-Lys)- NH2]	98%	agonist	–	–	observed spontaneous erections [4]: increase in observed spontaneous erections
CC(=O)N[C@@H](CCCNC(=N)N)C(=O)N[C@H]1CCC(=O)NCCC[C@@H](C(N)=O)NC(=O)[C@H](Cc2c[nH]c3ccccc23)NC(=O)[C@H](CCCNC(=N)N)NC(=O)[C@@H](Cc2ccccc2)NC(=O)[C@H](CC(N)=O)NC1=O [compound 161, Ac-Arg-cyclo/(Glu-Asn- D-Phe-Arg-Trp-Orn)- NH2]	–	–	85%	91%	–
CC(=O)N[C@@H](CCCNC(=N)N)C(=O)N[C@H]1CCCNC(=O)CC[C@@H](C(N)=O)NC(=O)[C@H](Cc2c[nH]c3ccccc23)NC(=O)[C@H](CCCNC(=N)N)NC(=O)[C@@H](Cc2ccccc2)NC(=O)[C@H](CC(N)=O)NC1=O [compound 154, Ac-Arg-cyclo(Orn-Asn- D-Phe-Arg-Trp-Glu)- NH2]	–	–	87%	–	–
CC(=O)N[C@@H](CCCNC(=N)N)C(=O)N[C@H]1CCCCNC(=O)C[C@@H](C(N)=O)NC(=O)[C@H](Cc2c[nH]c3ccccc23)NC(=O)[C@H](CCCNC(=N)N)NC(=O)[C@@H](Cc2ccccc2)NC(=O)[C@H](CC(N)=O)NC1=O [compound 155, Ac-Arg-cyclo(Lys-Asn- D-Phe-Arg-Trp-Asp)- NH2] (HELM PEPTIDE1{[ac].R.K.N.[dF].R.W.D.[am]}$PEPTIDE1,PEPTIDE1,3:R3-8:R3$$$V2.0)	–	–	91%	97%	–
CC(=O)N[C@@H](CCCNC(=N)N)C(=O)N[C@H]1CCCC(=O)NCC[C@@H](C(N)=O)NC(=O)[C@H](Cc2c[nH]c3ccccc23)NC(=O)[C@H](CCCNC(=N)N)NC(=O)[C@@H](Cc2ccccc2)NC(=O)[C@H](CC(N)=O)NC1=O [compound 160, Ac-Arg-cyclo(hGlu-Asn- D-Phe-Arg-Trp-Dab)- NH2] (HELM PEPTIDE1{[ac].R.[O=C([C@H](CCCC(=O)[*:3])N[*:1])[*:2]].N.[dF].R.W.[Dab].[am]}$PEPTIDE1,PEPTIDE1,3:R3-8:R3$$$V2.0)	–	–	95%	98%	–
CC(=O)N[C@H](CCCNC(=N)N)C(=O)N[C@H]1CCCNC(=O)CC[C@@H](C(N)=O)NC(=O)[C@H](Cc2c[nH]c3ccccc23)NC(=O)[C@H](CCCNC(=N)N)NC(=O)[C@@H](Cc2ccccc2)NC(=O)[C@H](CCC(N)=O)NC1=O [compound 152, Ac-D-Arg-cyclo(Orn- Gln-D-Phe-Arg-Trp- Glu)-NH2]	–	–	85%	89%	–
CC(=O)N[C@@H](CCCNC(=N)N)C(=O)N[C@H]1CCCC(=O)NCC[C@@H](C(N)=O)NC(=O)[C@H](Cc2c[nH]c3ccccc23)NC(=O)[C@H](CCCNC(=N)N)NC(=O)[C@@H](Cc2ccccc2)NC(=O)[C@H](CCN)NC1=O [compound 127, Ac-Arg-cyclo(hGlu-Dab- D-Phe-Arg-Trp-Dab)- NH2]	98%	agonist	–	–	–
